Values after ≈ are worked out from the molar mass of the structure shown.
What was measured:
Format in all cases: functional, cell-based
[1] = tested on: KB; experiment: Cytotoxicity against drug-sensitive human KB cells
[2] = tested on: Jurkat; experiment: Cytotoxicity against human Jurkat cells
[3] = Cytotoxicity against vincristine-resistant human KB/VJ300 cells

## CC(C)=C1CC[C@H]([C@H]2CC[C@@]3(C)[C@@H]4CC[C@H]5C(C)(C)[C@@H](O)C(=O)C[C@@]56C[C@@]46CC[C@]23C)[C@H](O)C1 [MONOCARPINE]
[1]
  IC50: > 5 µg/mL

## O=C1C=CC=C2C(=O)c3c4c(ccc3=C2N1)=CC=N4 [MONOMARGINE]
[2]
  IC50: 0.7 µg/mL (≈ 2.82 µM)
[1]
  IC50: 4.7 µg/mL (≈ 18.9 µM)
[3]
  IC50: 3 µg/mL (≈ 12.1 µM)

## COc1cc2c(c3c1=CC=N3)C(=O)C1=CC=CC(=O)NC=21 [MONOMARGININE]
[2]
  IC50: 0.4 µg/mL (≈ 1.44 µM)
[1]
  IC50: 4 µg/mL (≈ 14.4 µM)
[3]
  IC50: 2.6 µg/mL (≈ 9.34 µM)

From ChEMBL document CHEMBL1157392, “A cycloartane incorporating a fused tetrahydrofuran ring and a cytotoxic lactam from Monocarpia marginalis” (J Nat Prod, 2008)
